Data as given in US20110165603A1, “SMALL MOLECULE FLUORESCENT SENSORS FOR DETECTION OF POST-TRANSLATIONALMODIFICATIONS AND PROTEIN INTERACTIONS IN BIOASSAYS” (Gyrasol Technologies Inc., priority 2008, published 2011).
Entries after “also recorded” stand apart in the source; their conditions may differ.

Key:
[1] = system: phosphodiesterase; test: Multiplexed lysate assay: phosphodiesterase mediated cleavage of fluorescein-labeled cAMP; assay type: biochemical, mouse; settings: 2 μg lysate, 1.5 μM cAMP substrate, FIG. 24B
Text: (§1) In the presence of cAMP, PKA activity is stimulated resulting in phosphorylation of labeled kemptide substrate and an increase in the delta RFU of the kemptide (right axis). PDE4A 1A hydrolyzes c-AMP to AMP resulting in an increase in the delta RFU (left axis). In the presence of the PDE inhibitor IBMX, hydrolysis of cAMP is inhibited resulting in hight concentrations of cAMP and higher PKA activities. FIG. 24B is a line graph of the change in relative fluorescence units (delta RFU) in fluorescien-labelled cAMP (1.5 μM, left axis) and Chromeo642-labeled LRRASLG (3 μM, right axis) caused by PKA present in 2 μg lysate in the presence of varying amounts of the non-selective PDE inhibitor IBMX.
(§2) Multiplexing can be accomplished using electron transfer quenching with zirconyl chloride sensor and 2 μM fluorescein labeled cAMP simultaneously with 2 μM TAMRA labeled cGMP in various concentration of mouse brain lysate.
(§3) The assay platform can be used to monitor activities of enzymes of various classes, and thus is a novel tool to connect different braches of signaling. As outlined in the schematic FIG. 24A, a phsphodiesterase-mediated cleavage of cAMP is inhibited by IBMX. As a result, increasing amounts of cAMP can bind to the regulatory domain of its downstream target, PKA. Upon binding, the regulatory subunits disassociate from the catalytic subunit and PKA becomes catalytically active.

[2] = system: PKA present in 2 μg lysate; test: Multiplexed lysate assay: PKA phosphorylation of Chromeo642-labeled LRRASLG; assay type: biochemical, mouse; settings: 3 μM substrate, FIG. 24B
Text: as §1, §2, §3

[3] = target: recombinant PDE41A1A (Homo sapiens, UniProt P27815); test: PDE biochemical inhibition assay with fluorescein-labeled cAMP and zirconyl chloride sensor; settings: endpoint mode, PDE4A1A 3 nM, 2 μM fluorescein-labeled cAMP, 100 μM sensor, FIG. 21A
Sequence of recombinant PDE41A1A (P27815 1-647 isoform P27815-4): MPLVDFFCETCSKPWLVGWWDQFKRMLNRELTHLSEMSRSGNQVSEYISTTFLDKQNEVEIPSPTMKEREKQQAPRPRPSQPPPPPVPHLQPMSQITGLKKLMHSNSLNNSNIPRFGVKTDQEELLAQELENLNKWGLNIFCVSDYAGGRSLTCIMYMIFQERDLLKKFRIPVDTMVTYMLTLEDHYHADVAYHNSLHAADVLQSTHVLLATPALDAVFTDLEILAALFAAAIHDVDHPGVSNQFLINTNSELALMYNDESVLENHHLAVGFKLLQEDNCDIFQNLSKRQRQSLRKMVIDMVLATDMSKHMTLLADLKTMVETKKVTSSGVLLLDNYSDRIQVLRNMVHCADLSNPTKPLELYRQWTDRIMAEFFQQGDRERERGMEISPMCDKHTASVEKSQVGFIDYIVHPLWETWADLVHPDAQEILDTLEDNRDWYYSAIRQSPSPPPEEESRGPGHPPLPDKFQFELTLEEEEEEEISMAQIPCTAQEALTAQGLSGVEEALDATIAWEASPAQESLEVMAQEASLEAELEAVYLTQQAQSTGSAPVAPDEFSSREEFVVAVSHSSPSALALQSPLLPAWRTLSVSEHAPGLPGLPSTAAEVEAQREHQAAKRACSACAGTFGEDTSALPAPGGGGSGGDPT
Procedure: Assays were conducted with fluorescein-labeled cAMP at 2 μM and sensor (zirconyl chloride) at 100 μM.
For biochemical assays, 2 μM fluorescein labeled cAMP was added to various concentrations of recombinant PDE4AIA and zirconyl chloride sensor was added (100 μM) following 1 hour of incubation at room temperature (FIG. 19A). […] Reactions were terminated by addition of 100 μM Zirconyl sensor. […] Reactions were terminated by addition of 100 μM Zirconyl sensor.

CC(C)Cn1c(=O)n(C)c(=O)c2[nH]cnc21 [IBMX]
PDE activity (delta RFU of fluorescein-labeled cAMP) as a function of inhibitor concentration [1]: decreasing activity of phosphodiesterase mediated cleavage of cAMP; also recorded: PDE activity decreased with increasing amounts of IBMX
PKA activity (delta RFU of Chromeo642-labeled LRRASLG) as a function of inhibitor concentration [2]: increasing phosphorylation of the PKA substrate Chromeo-GLRRASLG; also recorded: PKA activity increases with increasing amount of IBMX
Inhibition values [3]: closely matched literature values
